Values quoted from earlier work as cited in patent publication US7632519B2, “TRPV1 agonist compounds, formulations, prodrugs, methods for using the same” (NeurogesX, Inc., priority 2005, dated 2009).

Conditions: oral dose levels of up to 2 mg/kg, humans

COc1cc(CNC(=O)CCCC/C=C/C(C)C)ccc1O [capsaicin]
adverse effects after oral dosing: without reported adverse effects
